Test results published in patent US20060252830A1, “Method for the treatment of magnesium and potassium deficiencies” (priority 2005, published 2006).

Tests used:
[1] = test system: patients with atrial fibrillation; details: oral; two 6 month studies; cited from earlier work
[2] = test system: patients receiving sotalol or dofetilide; assay: Randomized, double-blind, placebo-controlled study: 12-lead ECG intervals in people taking dofetilide or sotalol; type: in vivo, human
Procedure: (§1) A randomized, double-blind, placebo-controlled study was performed at Hartford Hospital. People taking dofetilide or sotalol therapy for at least 5 half-lives were eligible for inclusion. […] After enrollment, people who discontinued their sotalol or dofetilide or altered their dosage of these drugs were excluded as well. Thirty-four participants were enrolled in the study. Three were subsequently excluded because the antiarrhythmics they were using were discontinued or the dose of the antiarrhythmics changed during the study. Given the known baseline differences in QTc intervals among men and women, each gender was randomized separately using stratified allocation. Patients completing the study (n=30) were well matched for baseline characteristics, which are reflected in Table 1. Intracellular concentrations of essential elements were available for 19 subjects. Overall 63.2% of patients (regardless of experimental group) had baseline intracellular magnesium concentrations below the normal reference range of 33.9-41.9 mEq/IU with an average level of 32.6±2.2 mEq/IU. All of the other baseline intracellular elements evaluated (phosphorus, chloride, calcium, potassium, and sodium) were within the reference range although the phosphorus was at the top of the range (average=16.7±2.8 mEq/IU with reference range of 14.2-17.0 mEq/IU).
(§2) Participants received three tablets of magnesium L-lactate (Mag-Tab SR®; Niche Pharmaceuticals; Roanoke, Tex.) or matching placebo twice daily (504 mg of elemental magnesium daily) for 48 hours (i.e. t=0, 12 h, 24 h, 36 h, and 48 h). A 12-lead electrocardiogram (ECG) was recorded at 25 mm/sec at rest prior to initiation of treatment (i.e. baseline) and at 3 and 51 hours after the first dose of magnesium (i.e. t=3 h and t=51 h) for each participant. A single blinded investigator read all ECGs using a precision ruler of 0.5 mm scale (Schlaedler-Quinzel, Inc. Parsippany, N.J.).
QT intervals were measured from the onset of the Q wave (or R/S wave if there was no Q wave) to the end of the T wave where it merges with the isoelectric baseline. The beginning and end of the QRS complex were determined by visual inspection, whereas the end of the T-wave was obtained by extrapolating the descending slope of the T-wave to the isoelectric baseline. When a U wave interrupts the down-sloping of the T-wave, the visible portion of the T wave was extrapolated to the T-P baseline to define the end of the T-wave. The R-R interval was measured from the peak of one R wave to the peak of an adjacent R wave. The QTc interval was corrected for heart rate using Bazett's formula [QTc=QT/(RR)^1/2].
Continuous data was expressed by a mean±SD. A p value less than 0.05 was considered statistically significant. The primary analysis was the intergroup comparisons of the change in QTc interval from baseline at 3 hours and 51 hours using Bazett's formula. Evaluations of the QRS, QT, and RR intervals were compared between groups at each time period as well. Mann-Whitney tests were used for all statistical analyses of continuous ECG data. Intracellular element intragroup comparisons were performed with a paired t-test. Chi^2 or Fischer's Exact tests were used for categorical comparisons. Statistical analysis was performed using SPSS version 5.

[3] = Intracellular elemental concentrations in sublingual buccal smears (EXAtest, energy-dispersive X-ray analysis); type: in vivo, human; details: p=0.002; all patients below the normal reference range at baseline reached it
Procedure: as §1, with “Patients completing the study (n=30) were well matched for baseline characteristics, which are reflected in Table 1. Intracellular concentrations of essential elements were available for 19 subjects. Overall 63.2% of patients (regardless of experimental group) had baseline intracellular magnesium concentrations below the normal reference range of 33.9-41.9 mEq/IU with an average level of 32.6±2.2 mEq/IU.” left out
as §2, with “A single blinded investigator read all ECGs using a precision ruler of 0.5 mm scale (Schlaedler-Quinzel, Inc. Parsippany, N.J.).” left out

Compound | maintaining sinus rhythm [1] | QT interval reduction ([2]; 3 hours) [ms] | reduction in the QTc interval from baseline ([2]; 3 hours, group receiving diuretics) [ms] | reduction in the QTc interval from baseline ([2]; 3 hours, no diuretic group) [ms] | reduction in the QTc interval from baseline ([2]; 51 hours, group receiving diuretics) [ms] | reduction in the QTc interval from baseline ([2]; 51 hours, no diuretic group) [ms] | change of intracellular magnesium concentrations after magnesium supplementation [3]
[Mg+2].[OH-].[OH-] [magnesium hydroxide] | ineffective | – | – | – | – | – | –
C[C@H](O)C(=O)[O-].C[C@H](O)C(=O)[O-].O.O.[Mg+2] [Magnesium L-lactate, magnesium l-lactate dihydrate] | – | 15 | 51.1 ± 42 | 25.5 ± 27.9 | 24.7 ± 24.3 | 26.2 ± 27.4 | rose significantly
